Series [1] is described as follows: Working memory (MWM) in ischemic rats. It is filed as in vivo, rat. Conditions: 0.5 mg/kg po chronic, vs DDW. The protocol: This was done by a bilateral carotid artery occlusion in Sprague Dawley rats: […] Ischemia was induced in 21 rats whereas the other 21 rats served as sham controls. Under pentobarbital anasthesia (30 mg/kg, ip), sodium nitropruside 4.8 mg/kg/hr) was infused through a cannula implanted in the tail vein, for a period of 25 min. […] Immediately afterwards 1.8 mEq sodium bicarbonate solution was administerd ip in order to minimize systemic acidosis. The sham operated rats were anesthetized as the ischemic rats and were infused with saline. Their carotid arteries were exposed but were not subject to carotid clamping. […] Animals were allowed to recover for 3 weeks prior to behavioral testing. […] The evaluation of the animals was done using the working-memory matching-to-sample paradigm in the MWM. […] REL and RPL reflect the relative saving in performance from trial no 1 to trial no 2. REL and RPL were analyzed by a 3-way ANOVA (2×2×3), with one repeated variable (weeks) and two non-repeated variables (Operation-ischemia/sham-operated and Treatment-AF150(S)/DDW).

The nature of series [2]: Aging microcebes, chronic treatment. The class given is in vivo. Conditions: chronic treatment for 18 months. The text has this: Aging microcebes show similar cognitive deficits and cerebral lesions to those observed in aging humans and in AD patients. Thus this is a good animal model for AD, […] major hallmarks in AD {plaques (Aβ), paired helical filaments (hyperphophorylated and aggregated τ) and cognitive dysfunction}.

Series [3] is described as follows: Chronic oral toxicity up to 13 weeks, rat. It is filed as in vivo, Wistar rat.
For series [4], the system named is adenosine A1, A2A, A3; alpha 1, alpha 2, beta 1; AT1; BZD; B2; CCKA; D1, D2S; ETA; GABA; GAL2; IL-8B; CCR1; H1, H2; MC4; ML1; NK2, NK3; Y1, Y2; NT1; opiate …. The experiment in a line: Selectivity binding panel for AF292. The following applies: 10 μM.
The target of another series is T1, human M3 receptor (Homo sapiens, UniProt P20309).
T1 construct: expressed in transfected cells
T1 sequence (P20309 whole entry): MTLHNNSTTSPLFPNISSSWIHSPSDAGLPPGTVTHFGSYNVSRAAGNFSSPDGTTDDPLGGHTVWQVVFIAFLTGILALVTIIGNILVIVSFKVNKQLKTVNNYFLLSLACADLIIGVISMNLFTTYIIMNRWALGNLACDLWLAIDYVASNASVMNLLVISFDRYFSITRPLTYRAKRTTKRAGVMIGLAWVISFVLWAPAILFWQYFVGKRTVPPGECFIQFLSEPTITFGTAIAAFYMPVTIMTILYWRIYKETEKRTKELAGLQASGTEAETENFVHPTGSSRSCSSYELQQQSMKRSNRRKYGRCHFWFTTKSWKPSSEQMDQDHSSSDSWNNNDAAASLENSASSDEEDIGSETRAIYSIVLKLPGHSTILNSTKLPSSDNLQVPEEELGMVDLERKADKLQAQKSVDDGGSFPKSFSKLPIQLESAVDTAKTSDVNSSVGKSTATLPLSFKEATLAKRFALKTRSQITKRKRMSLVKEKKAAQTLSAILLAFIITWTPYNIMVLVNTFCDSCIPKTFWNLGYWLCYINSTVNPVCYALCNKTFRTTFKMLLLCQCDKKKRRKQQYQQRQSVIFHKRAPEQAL
The experiment in a line: Arachidonic acid (AA) release, human M3. It is filed as cell-based.

A value given as a limit tells only on which side of the number the result lay.

The values below come from US7439251B2, “Methods and compositions for treatment of central and peripheral nervous system disorders and novel compounds useful therefor” (Israel Institute for Biological Research, priority 2002, dated 2008).

As for `CC1=NCC2(CCN(C)CC2)S1` [AF150(S), 2,8-Dimethyl-1-thia-3,8-diaza-spiro[4.5]dec-2-ene], the “working memory performance (REL and RPL)” value in series [1] is reported as “significantly improved working memory performance”. In addition, in series [2], the astrogliosis and inflammation entry is “decreased astrogliosis and inflammation”; the “cognitive and behavioral impairments” value was “improved the cognitive and behavioral impairments”; the “hyperphosphorylated τ proteins, neurons with aggregated τ, paired helical filaments” value is “decreased hyperphosphorylated τ proteins”.
Consider `CC[C@@H]1SC2(CCN(C)CC2)NC1=O` [AF267B, (S)-2-ethyl-8-methyl-1-thia-4,8-diaza-spiro[4.5]decan-3-one], for which the “dose at which (muscarinic) effects are seen” value in series [3] is given as above 40 mg/kg.
`CC[C@@H]1SC2(CCNCC2)NC1=O` [AF292, (S)-2-Ethyl-1-thia-4,8-diaza-spiro[4.5]decan-3-one]: the “binding to other receptors, channels and transporter” value in series [4] is listed as “no binding at all”. In addition, the “AA release, agonist activity” value on human M3 receptor is “inactive as an agonist”.
